Here are results for one compound from patent US9409880B2, “Modulators of TLR3/dsRNA complex and uses thereof” (The Regents of the University of Colorado, a body corporate, priority 2011, dated 2016).

The target of one data set is T1, TLR2/6 (Mus musculus, UniProt Q9EPW9+Q9QUN7).
T1 construct: endogenous in cells; host or cells: RAW 264.7
Briefly: RAW264.7 cell nitric oxide TLR selectivity assay (FSL-1). The data set is classed as cell-based. The conditions noted are these: 27 μM.

Another data set addresses T2, TLR2/1 (Mus musculus, UniProt Q9EPQ1+Q9QUN7).
T2 construct: endogenous in cells; host or cells: RAW 264.7
Briefly: RAW264.7 cell nitric oxide TLR selectivity assay (Pam3CSK4). In kind it is cell-based. The conditions noted are these: 27 μM.

The target of the next data set is T3, TLR3 (Homo sapiens, UniProt O15455).
T3 construct: purchased R &D
T3 sequence (O15455 24-904): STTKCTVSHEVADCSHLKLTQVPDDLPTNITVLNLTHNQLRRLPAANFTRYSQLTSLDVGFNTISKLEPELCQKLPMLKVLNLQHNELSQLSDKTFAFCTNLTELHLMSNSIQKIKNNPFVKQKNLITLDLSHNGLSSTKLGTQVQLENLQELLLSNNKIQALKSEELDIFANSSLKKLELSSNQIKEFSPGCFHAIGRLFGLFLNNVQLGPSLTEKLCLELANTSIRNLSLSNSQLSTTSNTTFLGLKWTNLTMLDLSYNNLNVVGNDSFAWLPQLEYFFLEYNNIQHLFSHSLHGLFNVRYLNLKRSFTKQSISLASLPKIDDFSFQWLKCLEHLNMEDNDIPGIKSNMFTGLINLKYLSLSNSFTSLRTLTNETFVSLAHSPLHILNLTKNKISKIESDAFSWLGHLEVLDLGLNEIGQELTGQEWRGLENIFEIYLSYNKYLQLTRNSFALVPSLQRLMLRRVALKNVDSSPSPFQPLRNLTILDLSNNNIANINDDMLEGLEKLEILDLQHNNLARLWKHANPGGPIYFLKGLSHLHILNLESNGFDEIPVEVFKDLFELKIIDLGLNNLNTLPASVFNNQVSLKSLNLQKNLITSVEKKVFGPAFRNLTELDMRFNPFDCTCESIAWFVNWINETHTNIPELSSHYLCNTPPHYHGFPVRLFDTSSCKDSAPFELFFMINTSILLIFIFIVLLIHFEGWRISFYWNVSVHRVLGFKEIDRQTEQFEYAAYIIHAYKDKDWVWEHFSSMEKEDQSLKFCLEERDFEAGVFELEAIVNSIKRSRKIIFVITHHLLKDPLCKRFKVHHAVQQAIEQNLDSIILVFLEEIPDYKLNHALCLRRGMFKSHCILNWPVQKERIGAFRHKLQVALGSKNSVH
Briefly: Fluorescence anisotropy assay, competition with Rhodamine labeled Poly IC. In kind it is binding. As to the method:
The anisotropy of Rhodamine labeled Poly IC increased from approximately 0.116 to 0.171 upon addition of TLR3 (excitation=546 nm; emission=576 nm).
In 500 μL Tris buffer (pH=7.2) add 5 μL (1 μg/mL) Rhodamine labeled Poly IC (Invivogen), test the anisotropy at excitation of 546 nm and emission of 576 nm (Horiba Fluorolog 3). An addition 3 μL (20 μM) of TLR3 (R &D) was added in the buffer, then test the anisotropy again. Following, 4a was added in the buffer from 0 to 68 μM, and the fluorescence anisotropy was tested when the concentration was changed.
(In general: In fluorescence polarisation assays a small probe gives low polarisation when free and higher when bound to something large.)

Data set [1] deals with TNF-α and IL-1β production. Briefly: Cytokine-specific ELISA in RAW 264.7 cells. The conditions noted are these: 27 μM compound. In kind it is cell-based, Mouse. As for the experimental part:
A secondary cell assay was used to confirm that compound 4a inhibits the downstream signaling transduction mediated by the formation of the TLR3/dsRNA complex. In addition to TLR3 signaling suppression, the release of the proinflammatory cytokines, TNF-α and IL-1β, were also studied.
RAW cells were planted in 6-well plates at 1,000,000 cells per well with 3 mL of medium (RPMI 1640 medium, supplemented with 10% FBS, penicillin (100 U/mL) and streptomycin ([…])) and grown for 24 h at 37° C. in a 5% CO2 humidified incubator. After 24 h, non-adherent cells and media were removed and replaced with fresh RPMI 1640 medium (3 mL/well). […] In additionally wells, one well was treated with only 4a (27 μM) and the other was treated with nothing. Plates were then incubated for an additional 24 h. […] Approximately 400 μL of supernatant were collected into new tubes, frozen at −80° C. until ready for cytokine measurement. The production of the cytokine interleukin-1β (IL-1β) and TNF-α was quantified with enzyme-linked immunosorbent assays (ELISA) using cytokine-specific capture antibodies, biotinylated monoclonal detection antibodies, and recombinant human cytokine standards according to commercially available ELISA kits from R&D Systems. The cytokine level in each sample was determined in duplicate.
For orientation: In an ELISA, binding on a coated surface is turned into a signal by an enzyme label.

A further data set concerns the target T4, Cyp2C19 (Homo sapiens, UniProt P33261).
T4 construct: tissue Apredica (testing lab); host or cells: microsomes (subcellular fractions)
Briefly: Cytochrome P450 toxicity assay. The data set is classed as in vitro ADME. The conditions noted are these: 25 μM and 50 μM; compared to known inhibitor ticlopidine. As to the method:
Test agent was incubated (two wells per condition) with microsomes at 37° C. Control incubations containing vehicle or reference inhibitors were run along side the test agents. The final assay contained test agent, probe substrates at the indicated concentration, 2 mM NADPH, 3 mM MgCl2 in 50 mM potassium phosphate buffer, pH 7.4. The final microsomal concentration was 0.5 mg/mL. The maximum solvent concentration in the final assay was ≦0.5% to minimize the inhibition of Cyps by solvent. NADPH was added last to start the assay. At the end of ten minutes incubation, the assay was stopped by the addition of acetonitrile containing internal standard, the samples were centrifuged, and the amount of probe metabolite in the supernatant was determined by LC/MS/MS. (Testing was done by Apredica, Watertown, Mass. using subcellular fractions)

For another data set, the system named is RAW 264.7 cells. Briefly: WST-1 cytotoxicity assay. In kind it is cell-based, Mouse. The conditions noted are these: WST-1 methodology; different concentrations. As to the method: This assay was conducted in a 96-well plate with 5,000 cells in 100 μL media (RPMI 1640 medium, supplemented with 10% FBS, penicillin (100 U/mL) and streptomycin ([…])) per well. Eight wells were left empty for blank controls. The plates were incubated (37° C., 5% CO2) overnight to allow the cells to attach to the wells. WST-1 proliferation reagent (Roche) was added to the cells (10 μL per well) and continued to incubate for 1-2 h at 37° C. Plates were checked visually by comparing the colour of wells with media without cells (colour remained pink) with wells contained untreated cells (colour is orange). When a clear difference could be seen by naked eye, results were read by spectrophotometer at 490 nm. Cytotoxicity (%) was determined using the following formula: Cytotoxicity (%)=(1−[Compounds (OD490)−Background (OD490)]/[Control (OD490)−Background (OD490)])×100.
For orientation: Tetrazolium dyes change colour on reduction, which living cells bring about.

Another data set concerns representative kinases. Briefly: Kinase profiling. In kind it is biochemical. The conditions noted are these: 10 μM.

T1 sequence (Q9QUN7 25-784): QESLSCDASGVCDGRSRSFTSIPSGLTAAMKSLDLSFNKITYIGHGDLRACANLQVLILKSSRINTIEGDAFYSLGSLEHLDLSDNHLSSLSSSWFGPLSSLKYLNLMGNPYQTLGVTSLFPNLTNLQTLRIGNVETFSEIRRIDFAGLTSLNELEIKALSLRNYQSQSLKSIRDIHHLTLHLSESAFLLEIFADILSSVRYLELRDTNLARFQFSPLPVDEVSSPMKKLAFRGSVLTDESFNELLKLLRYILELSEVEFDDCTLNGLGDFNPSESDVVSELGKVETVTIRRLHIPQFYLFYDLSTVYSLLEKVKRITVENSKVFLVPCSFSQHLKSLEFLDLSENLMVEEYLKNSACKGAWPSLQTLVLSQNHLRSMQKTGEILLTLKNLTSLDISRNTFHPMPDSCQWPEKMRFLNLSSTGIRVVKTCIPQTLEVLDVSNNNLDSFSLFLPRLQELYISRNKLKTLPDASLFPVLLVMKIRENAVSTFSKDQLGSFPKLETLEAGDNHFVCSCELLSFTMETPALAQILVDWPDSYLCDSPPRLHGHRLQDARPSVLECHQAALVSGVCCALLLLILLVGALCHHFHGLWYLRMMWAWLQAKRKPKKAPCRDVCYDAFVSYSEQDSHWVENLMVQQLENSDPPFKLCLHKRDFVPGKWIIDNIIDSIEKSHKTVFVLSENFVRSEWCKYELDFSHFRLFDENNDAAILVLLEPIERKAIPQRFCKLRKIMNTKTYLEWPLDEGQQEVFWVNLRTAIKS
T1 sequence (Q9EPW9 28-795): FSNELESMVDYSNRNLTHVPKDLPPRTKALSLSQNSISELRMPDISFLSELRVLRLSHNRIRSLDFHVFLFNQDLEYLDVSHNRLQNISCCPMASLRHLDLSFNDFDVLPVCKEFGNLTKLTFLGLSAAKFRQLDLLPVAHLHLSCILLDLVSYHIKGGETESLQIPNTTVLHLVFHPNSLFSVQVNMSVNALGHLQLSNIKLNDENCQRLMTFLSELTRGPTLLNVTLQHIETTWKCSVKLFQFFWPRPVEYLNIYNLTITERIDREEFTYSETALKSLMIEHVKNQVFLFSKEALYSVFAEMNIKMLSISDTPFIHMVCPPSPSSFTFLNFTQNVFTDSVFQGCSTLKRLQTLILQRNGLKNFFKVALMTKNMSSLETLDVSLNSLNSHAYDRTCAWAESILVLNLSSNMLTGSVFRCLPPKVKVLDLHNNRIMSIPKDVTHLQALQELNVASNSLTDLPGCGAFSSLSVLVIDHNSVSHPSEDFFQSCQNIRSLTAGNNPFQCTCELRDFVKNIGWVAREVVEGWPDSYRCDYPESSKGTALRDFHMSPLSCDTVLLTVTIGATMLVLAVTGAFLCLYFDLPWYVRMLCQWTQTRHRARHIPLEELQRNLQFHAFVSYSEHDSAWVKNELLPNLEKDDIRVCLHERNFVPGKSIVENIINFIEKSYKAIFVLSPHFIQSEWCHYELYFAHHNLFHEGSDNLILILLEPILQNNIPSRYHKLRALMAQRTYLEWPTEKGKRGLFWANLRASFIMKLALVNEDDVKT
T2 sequence (Q9QUN7 25-784): as the sequence (Q9QUN7 25-784) above
T2 sequence (Q9EPQ1 25-795 limits assumed): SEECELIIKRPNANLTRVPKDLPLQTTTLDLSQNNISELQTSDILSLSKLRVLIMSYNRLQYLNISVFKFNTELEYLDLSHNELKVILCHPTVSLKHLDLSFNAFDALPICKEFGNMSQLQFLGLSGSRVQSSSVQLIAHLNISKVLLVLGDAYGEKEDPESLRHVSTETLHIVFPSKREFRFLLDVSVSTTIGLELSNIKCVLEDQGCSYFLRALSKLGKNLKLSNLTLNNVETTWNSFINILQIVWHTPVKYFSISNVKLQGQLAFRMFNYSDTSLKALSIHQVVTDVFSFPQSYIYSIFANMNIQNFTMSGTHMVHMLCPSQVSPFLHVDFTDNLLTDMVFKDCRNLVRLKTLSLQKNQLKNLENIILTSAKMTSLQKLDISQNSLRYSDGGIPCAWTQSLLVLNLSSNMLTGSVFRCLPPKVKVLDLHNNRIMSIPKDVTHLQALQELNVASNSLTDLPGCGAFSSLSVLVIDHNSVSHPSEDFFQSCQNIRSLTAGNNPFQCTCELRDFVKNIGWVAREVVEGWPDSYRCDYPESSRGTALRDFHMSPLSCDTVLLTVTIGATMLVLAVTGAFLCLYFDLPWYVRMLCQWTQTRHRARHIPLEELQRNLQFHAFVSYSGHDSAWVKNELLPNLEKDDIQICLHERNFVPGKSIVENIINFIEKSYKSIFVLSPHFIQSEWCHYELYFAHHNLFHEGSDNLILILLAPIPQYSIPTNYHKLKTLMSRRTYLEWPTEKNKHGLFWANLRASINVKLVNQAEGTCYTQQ
T4 sequence (P33261 whole entry): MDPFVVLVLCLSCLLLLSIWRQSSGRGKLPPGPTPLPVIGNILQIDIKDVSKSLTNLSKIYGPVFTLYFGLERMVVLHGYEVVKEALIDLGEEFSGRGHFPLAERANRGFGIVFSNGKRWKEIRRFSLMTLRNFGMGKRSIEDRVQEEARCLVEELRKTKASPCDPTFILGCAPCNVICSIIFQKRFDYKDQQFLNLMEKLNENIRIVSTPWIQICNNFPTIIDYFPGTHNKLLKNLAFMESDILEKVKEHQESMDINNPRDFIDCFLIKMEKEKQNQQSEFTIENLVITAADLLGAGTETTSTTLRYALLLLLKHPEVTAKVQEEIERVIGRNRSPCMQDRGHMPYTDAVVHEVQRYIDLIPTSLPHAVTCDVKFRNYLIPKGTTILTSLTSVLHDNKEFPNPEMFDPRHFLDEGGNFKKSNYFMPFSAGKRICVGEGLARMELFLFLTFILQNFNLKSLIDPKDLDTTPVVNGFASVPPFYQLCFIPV

In general, Ki refers to the equilibrium dissociation constant of an inhibitor or competing ligand from its target. Read a low Ki as a stronger hold on the target. With `O=C(N[C@H](Cc1ccccc1)C(=O)O)c1sc2cc(F)ccc2c1Cl` [Compound 4a, (R)-2-(3-chloro-6-fluorobenzo[b]thiophene-2-carboxamido)-3-phenylpropanoic acid], the “effect on TLR2/6 signaling” value on TLR2/6 was “without significantly affecting other TLRs”. Also, the “effect on TLR2/1 signaling” value on TLR2/1 was “without significantly affecting other TLRs”. Further, the “TLR3 binding competition with dsRNA” value at TLR3 is “competes with dsRNA in binding to TLR3”. The compound also returned a Ki on TLR3 (competes with dsRNA for binding to TLR3) of 2960 ± 320 nM. Further, on TLR3 (compound concentration increased to 68 μM), the “anisotropy of Rhodamine labeled Poly IC” value is on record as “decreased the anisotropy to background levels”. In addition, in data set [1], the IL-1β production entry is “inhibits” and the TNF-α production entry is on record as “inhibits”. The “toxicity to Cyp2C19” value at Cyp2C19 is recorded as “low toxicity”. In addition, the “toxicity in RAW 264.7 cells” value in the data set with RAW 264.7 cells is “did not show any significant toxicity”. Also, the “effect on kinase activities” value in the data set on representative kinases is “did not significantly affect activities”.
